Results from ChEMBL document CHEMBL1157247, “Bioactive natural and semisynthetic latrunculins” (2006).
Values after ≈ are worked out from the molar mass of the structure shown. Active and inactive are the calls of the source. The calls are words filed in the database; no cut-off is given here.

Tests used:
Bacillus cereus = experiment: Antibacterial activity against Bacillus cereus by modified microtiter plate assay; format: functional
Staphylococcus aureus = experiment: Antibacterial activity against Staphylococcus aureus ATCC 6535 by modified microtiter plate assay; format: functional
Saccharomyces cerevisiae = experiment: Antifungal activity against Saccharomyces cerevisiae by modified microtiter plate assay; format: functional
Candida albicans = experiment: Antifungal activity against Candida albicans ATCC 10231 by modified microtiter plate assay; format: functional
Mus musculus [1] = species on record: Mus musculus; experiment: Antiproliferative activity against mouse B16B15b cells at 1 uM after 18 hrs by alamar blue assay relative to control; format: functional, cell-based
Mus musculus [2] = species on record: Mus musculus; experiment: Inhibition of mouse B16B15b cell migration assessed as wound closure rate at 1 uM after 14 hrs by wound healing assay relative to control; format: functional
Gallus gallus [3] = species on record: Gallus gallus; experiment: Antiangiogenic activity in fertilized white leghorn chicken eggs at 57 uM/disk by CAM assay; format: functional; conditions: Egg
Mus musculus [4] = species on record: Mus musculus; experiment: Inhibition of mouse B16B15b cell migration at 1 uM by Boyden's camber assay; format: functional
Gallus gallus [5] = species on record: Gallus gallus; experiment: Antiangiogenic activity in fertilized white leghorn chicken eggs at 12 uM/disk by CAM assay; format: functional; conditions: Egg

Q: Which MIC (Bacillus cereus) does the source give for `CC1(C)S[C@@H]2[C@H](NC(=O)Cc3ccccc3)C(=O)N2[C@H]1C(=O)O` [PENICILLIN G] here?
A: 22.4 µM (≈ 7.49 µg/mL)

Q: And the MIC (Staphylococcus aureus)?
A: 22.4 µM (≈ 7.49 µg/mL)

Q: `C/C1=C/C(=O)O[C@@H]2C[C@@H](CC[C@H](C)/C=C\CC1)O[C@@](O)([C@@H]1CSC(=O)N1)C2` [LATRUNCULIN B] was tested. Which MIC (Saccharomyces cerevisiae) did it give?
A: 2.5 µM (≈ 0.989 µg/mL)

Q: And the MIC (Candida albicans)?
A: 2.5 µM (≈ 0.989 µg/mL)

Q: What about the Activity (Mus musculus [1]) of the same compound?
A: Active

Q: And the Activity (Mus musculus [2])?
A: Active

Q: With `CCCCO[C@]1([C@@H]2CSC(=O)N2)C[C@H]2C[C@@H](CC[C@H](C)/C=C\CC/C(C)=C\C(=O)O2)O1` [15-O-BUTYLLATRUNCULIN B] as the compound, how does the MIC (Saccharomyces cerevisiae) read?
A: 2.5 µM (≈ 1.13 µg/mL)

Q: What about the MIC (Candida albicans) of the same compound?
A: 2.5 µM (≈ 1.13 µg/mL)

Q: And the Activity (Mus musculus [1])?
A: Active

Q: How did the Activity (Gallus gallus [3]) turn out when `COc1cc(/C=C/C(=O)CC(=O)/C=C/c2ccc(O)c(OC)c2)ccc1O` was run?
A: Active

Q: What does the source list for `CCCCCCCCO[C@]1([C@@H]2CSC(=O)N2)C[C@H]2C[C@@H](CC[C@H](C)/C=C\CC/C(C)=C\C(=O)O2)O1` [15-O-OCTYLLATRUNCULIN B]?
A: MIC (Saccharomyces cerevisiae): 2.5 µM (≈ 1.27 µg/mL); MIC (Candida albicans): 2.5 µM (≈ 1.27 µg/mL); Activity (Mus musculus [1]): Active; MIC (Bacillus cereus): 14.7 µM (≈ 7.46 µg/mL); MIC (Staphylococcus aureus): 14.7 µM (≈ 7.46 µg/mL)

Q: Which results are given for `CO[C@]1([C@@H]2CSC(=O)N2)C[C@H]2C[C@@H](CC[C@H](C)/C=C\CC/C(C)=C\C(=O)O2)O1` [15-METHOXYLATRUNCULIN B]?
A: Activity (Mus musculus [4]): Active; MIC (Saccharomyces cerevisiae): 2.5 µM (≈ 1.02 µg/mL); MIC (Candida albicans): 2.5 µM (≈ 1.02 µg/mL); Activity (Gallus gallus [5]): Active

Q: `CC(=O)N1C(=O)SC[C@H]1C(=O)/C=C/C[C@H]1CC[C@H](C)/C=C\CC/C(C)=C\C(=O)O1` was tested. Which MIC (Saccharomyces cerevisiae) did it give?
A: 2.5 µM (≈ 1.05 µg/mL)

Q: What about the MIC (Candida albicans) of the same compound?
A: 2.5 µM (≈ 1.05 µg/mL)

Q: What about the Activity (Mus musculus [1]) of the same compound?
A: Active

Q: And the MIC (Bacillus cereus)?
A: 17.8 µM (≈ 7.47 µg/mL)

Q: And the MIC (Staphylococcus aureus)?
A: 17.8 µM (≈ 7.47 µg/mL)

Q: For `Clc1ccccc1C(c1ccccc1)(c1ccccc1)n1ccnc1` [CLOTRIMAZOLE], which MIC (Saccharomyces cerevisiae) is on record?
A: 21.7 µM (≈ 7.48 µg/mL)

Q: What about the MIC (Candida albicans) of the same compound?
A: 21.7 µM (≈ 7.48 µg/mL)

Q: `CC(=O)N1C(=O)SC[C@H]1[C@@]1(O)C[C@H]2C[C@@H](CC[C@H](C)/C=C\CC/C(C)=C\C(=O)O2)O1` [N-ACETYLLATRUNCULIN B] was tested. Which MIC (Saccharomyces cerevisiae) did it give?
A: 2.5 µM (≈ 1.09 µg/mL)

Q: What about the MIC (Candida albicans) of the same compound?
A: 2.5 µM (≈ 1.09 µg/mL)

Q: What about the Activity (Mus musculus [2]) of the same compound?
A: Active

Q: Which Activity (Mus musculus [4]) does the source give for `C/C1=C/C(=O)O[C@@H]2C[C@@H](CC[C@H](C)/C=C\CC1)O[C@@](O)([C@@H]1CSC(=O)N1CO)C2` [N-HYDROXYMETHYLLATRUNCULIN B] here?
A: Active

Q: What about the MIC (Saccharomyces cerevisiae) of the same compound?
A: 2.5 µM (≈ 1.06 µg/mL)

Q: And the MIC (Candida albicans)?
A: 2.5 µM (≈ 1.06 µg/mL)

Q: What does the source list for `C/C1=C/C(=O)O[C@@H]2CC(CC[C@H](C)/C=C\C=C\CC1)O[C@@](O)([C@H]1CSC(=O)N1)C2`?
A: MIC (Saccharomyces cerevisiae): 2.5 µM (≈ 1.05 µg/mL); MIC (Candida albicans): 2.5 µM (≈ 1.05 µg/mL)
